Reference: patent US7592188B2, “Live cell biosensors” (The Scripps Research Institute, priority 2004, dated 2009)

Columns and labels:
Cdc42 = biological target: T1, Cdc42 (Homo sapiens, UniProt P60953); experiment: Analysis of Cdc42 activation: fluorescence of dye-labeled WASP fragment; assay type: binding
T1 construct: 6His; made in house; host or cells: E. coli BL21DE3, only by the words 'analogous procedures' to the CBD preparation
Protocol: Analysis of Cdc42 Activation. A solution of the WASP conjugate (300 nM) in a assay buffer (50 mM Tris-HCl, pH 7.6, 50 mM NaCl, 5 mM MgCl2, 1 mM DTT) was mixed 1:1 (v/v) with solutions of Cdc42, pre-equilibrated with 10 mM GDP or GTPγS as described below. Emission at 630 nm and excitation at 600 nm were used to acquire excitation and emission spectra, respectively. For nucleotide dependence, Cdc42 (500 nM) was preincubated with varying concentrations of GTPγS (1-500 nM).

[1] = Dye photo-bleaching under tungsten lamp irradiation; assay type: physicochemical
Protocol: Photo-bleaching. All samples contained 1 mM dye in a final volume of 10 mL. For nitrogen and oxygen saturation the samples were bubbled with solvent-saturated gas for 30 min. A 90 W halogen tungsten lamp was employed for irradiation, with a fan used for cooling. The temperature of samples was 25±1° C. during reactions. The absorption spectrum of each sample was measured before irradiation and after every 10 h period. For the trapping experiment thioanisole (1.0 M) was added to oxygen-saturated butanol solution of dye 1b. After 60 h of irradiation the reaction mixture was analyzed by GC-MS for products formed. The products, methylphenylsulfoxide and methylphenyl sulfone, were identified by comparison with authentic samples.
Dyes used in living cells must be photostable to provide many sequential images and to obtain sufficient light from minimal amounts of exogenous labeled material. The photostability of the new dyes was characterized by exposing them to constant illumination from a tungsten lamp filtered through glass, a broad spectrum light source that provided essentially equal intensity throughout the spectral range where the dyes would be irradiated in vivo. A fan was used to prevent heating, and dye solutions were adjusted for equal maximal absorbance, kept below 1 μM to minimize the inner filter effect. […] Photo-bleaching followed first-order kinetics in all cases.

Erk2 = experiment: Fluorescence response of dye-labeled Erk2 to phosphorylation; assay type: biochemical
From the text: This Example illustrates that the dyes of the invention can be attached directly to a protein of interest (e.g. Erk), where the dyes respond to conformational changes and phosphorylation. In particular, the I-TBA-3CNPh dye was attached to cysteine 214 of the MAP kinase Erk2, where it responded to Erk phosphorylation. A structure for the I-TBA-3CNPh dye is provided below.
This model was based on tryptic digestion combined with mass spectroscopic sequencing of the labeled protein, and on docking studies. The lighter (yellow) residues represent two lysines undergoing hydrogen bonding with the dye, and a tryptophan interacting through π-π stacking. Phosphorylation of the purple residues altered the conformation of the protein, affecting the tryptophan interaction and perturbing some of the hydrogen bonds.

Cdc42 activation = experiment: Peripheral Cdc42 activation in cells treated with cytoskeletal agents; assay type: cell-based
From the text: Microtubules or actin may direct Cdc42 activation to specific peripheral locations. This possibility was explored by treating cells with the microtubule-depolymerizing agents nocodazole and colchicine, or with cytochalasin D, an inhibitor of actin polymerization. […] Microtubules may therefore localize interactions between Cdc42 and guanine nucleotide exchange factors by directing vesicle trafficking or regulating events at adhesion complexes.

[2] = Water solubility and aggregation of dyes in water (absorbance spectra)
From the text: Labeling was accomplished only by including greater than 5% DMSO as cosolvent.

[3] = Photophysical properties of dyes in various solvents (absorbance, emission, quantum yield); assay type: physicochemical; design: ε × F / ε × Φ: unit not given here
Protocol: Analytical grade reagents were purchased from major suppliers. […] Emission and excitation spectra were obtained using a Spex Fluorolog 2 spectrofluorometer at 23° C. […] Demas et al., J. Phys. […] All operations with dyes were performed under dim light. Flasks containing dyes were wrapped with aluminum foil.

T1 sequence (P60953 whole entry, species assumed, the tested form may be a part): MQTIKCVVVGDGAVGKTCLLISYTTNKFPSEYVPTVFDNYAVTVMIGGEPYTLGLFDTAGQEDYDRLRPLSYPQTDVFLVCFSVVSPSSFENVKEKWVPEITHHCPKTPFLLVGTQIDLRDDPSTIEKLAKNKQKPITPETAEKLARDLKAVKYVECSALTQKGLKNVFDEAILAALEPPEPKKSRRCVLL

With CCN1/C(=C/C=C/C=C/C2=[N+](CCCCCC(=O)O)c3ccc(S(=O)(=O)O)cc3C2(C)C)C(C)(C)c2cc(S(=O)(=O)[O-])ccc21 [Cy5, reference compound] the “change in fluorescence intensity of cyanine-labeled WASP fragment” value (Cdc42; control experiments, WASP fragment labeled with Cy3 or Cy5) was “no change in fluorescence intensity was observed”, the “Absolute rate constant of dye photo-bleaching, kph × 10^6” value (shortened to “Absolute rate constant”) ([1]; BuOH) was 0.77 s^−1 and the “Absolute rate constant” value ([1]; MeOH) was 1.0 s^−1.

With CC1(C)/C(=C\C=C\C=C2C(=O)N(Cc3cccc(C#N)c3)C(=S)N(Cc3cccc(C#N)c3)C2=O)N(CCCNC(=O)CI)c2ccc(S(=O)(=O)O)cc21 [I-TBA-3CNPh] the “fluorescence change of dye-labeled Erk2” value (Erk2; incubation with MEK kinase and ATP) was “phosphorylation-induced increase in fluorescence”.

For COc1cc2c(c(OC)c1OC)-c1ccc(OC)c(=O)cc1[C@@H](NC(C)=O)CC2 [colchicine], the “effect on peripheral Cdc42 activation” value (Cdc42 activation) was “markedly affected peripheral Cdc42 activation”.

With C=C1[C@@H](C)[C@H]2[C@H](Cc3ccccc3)NC(=O)[C@]23[C@H](OC(C)=O)/C=C/[C@@](C)(O)C(=O)[C@@H](C)C/C=C/[C@H]3[C@@H]1O [cytochalasin D] the “effect on peripheral Cdc42 activation” value (Cdc42 activation) was “Only nocodazole and colchicine markedly affected peripheral Cdc42 activation”.

For CN1C(=O)C(=C/C=C/C=C2/Sc3ccccc3N2CCCS(=O)(=O)[O-])C(=O)N(C)C1=S.[Na+] [dye 1c, Sodium 3-[(2E)-2-[(2E)-4-(1,3-Dimethyl-4,6-dioxo-2-thioxotetrahydro-pyrimidin-5(2H)-ylidene)but-2-enylidene]-1,3-benzothiazol-3(2H)-yl]propane-1-sulfonate], the water solubility ([2]; in words) was “significantly improved”.

In the case of CCN1\C(=C/C=C/C=C2/C(=O)c3ccccc3S2(=O)=O)Sc2ccccc21 [dye 2a, (2Z)-2-[(2E,4E)-4-(3-Ethyl-1,3-benzothiazol-2(3H)-ylidene)but-2-enylidene]-1-benzothiophen-3(2H)-one 1,1-Dioxide], the “Abs. λmax” value ([3]; solvent BuOH) is reported as 604 nm, the “Emission λmax” value ([3]; solvent BuOH) is reported as 622 nm and the “Φ (quantum yield of fluorescence)” value ([3]; solvent BuOH) is reported as 0.12. For the same molecule, the “ε (molar extinction coefficient)” value ([3]; solvent BuOH) was “(163000)”, the “ε × F” value ([3]; solvent BuOH) was 20000 and the “Abs. λmax” value ([3]; solvent C6H6) was 591 nm. The “Emission λmax” value ([3]; solvent C6H6) was 617 nm, the “Φ (quantum yield of fluorescence)” value ([3]; solvent C6H6) was 0.16 and the “ε (molar extinction coefficient)” value ([3]; solvent C6H6) was “(152000)”. For the same molecule, the “ε × F” value ([3]; solvent C6H6) was 24000, the “Abs. λmax” value ([3]; solvent DMF) was 602 nm and the “Emission λmax” value ([3]; solvent DMF) was 619 nm. The “Φ (quantum yield of fluorescence)” value ([3]; solvent DMF) was 0.22, the “ε (molar extinction coefficient)” value ([3]; solvent DMF) was “(173000)” and the “ε × F” value ([3]; solvent DMF) was 38000. The “Abs. λmax” value ([3]; solvent MeOH) was 598 nm, the “Emission λmax” value ([3]; solvent MeOH) was 617 nm and the “Φ (quantum yield of fluorescence)” value ([3]; solvent MeOH) was 0.05. For the same molecule, the “ε (molar extinction coefficient)” value ([3]; solvent MeOH) was “(143000)”, the “ε × F” value ([3]; solvent MeOH) was 7000 and the “Abs. λmax” value ([3]; solvent OcOH) was 606 nm. The “Emission λmax” value ([3]; solvent OcOH) was 623 nm, the “Φ (quantum yield of fluorescence)” value ([3]; solvent OcOH) was 0.17 and the “ε (molar extinction coefficient)” value ([3]; solvent OcOH) was “(168000)”. For the same molecule, the “ε × F” value ([3]; solvent OcOH) was 29000, the “Absolute rate constant” value ([1]; BuOH) was 5.2 s^−1 and the “Absolute rate constant” value ([1]; MeOH) was 3.0 s^−1.

With CN1\C(=C/C=C/C=C2/C(=O)c3ccccc3S2(=O)=O)C(C)(C)c2ccccc21 [dye 4a, (2Z)-2-[(2E,4Z)-4-(1,3,3-Trimethyl-1,3-dihydro-2H-indol-2-ylidene)-but-2-enylidene]-1-benzothiophen-3(2H)-one 1,1-Dioxide] the “Abs. λmax” value ([3]; solvent BuOH) was 587 nm, the “Emission λmax” value ([3]; solvent BuOH) was 618 nm and the “Φ (quantum yield of fluorescence)” value ([3]; solvent BuOH) was 0.54. For the same molecule, the “ε (molar extinction coefficient)” value ([3]; solvent BuOH) was “(134000)”, the “ε × F” value ([3]; solvent BuOH) was 72000 and the “Abs. λmax” value ([3]; solvent C6H6) was 571 nm. The “Emission λmax” value ([3]; solvent C6H6) was 603 nm, the “Φ (quantum yield of fluorescence)” value ([3]; solvent C6H6) was 0.42 and the “ε (molar extinction coefficient)” value ([3]; solvent C6H6) was “(109000)”. The “ε × F” value ([3]; solvent C6H6) was 46000, the “Abs. λmax” value ([3]; solvent DMF) was 586 nm and the “Emission λmax” value ([3]; solvent DMF) was 615 nm. For the same molecule, the “Φ (quantum yield of fluorescence)” value ([3]; solvent DMF) was 0.97, the “ε (molar extinction coefficient)” value ([3]; solvent DMF) was “(143000)” and the “ε × F” value ([3]; solvent DMF) was 140000. For the same molecule, the “Abs. λmax” value ([3]; solvent MeOH) was 586 nm, the “Emission λmax” value ([3]; solvent MeOH) was 615 nm and the “Φ (quantum yield of fluorescence)” value ([3]; solvent MeOH) was 0.08. For the same molecule, the “ε (molar extinction coefficient)” value ([3]; solvent MeOH) was “(143000)”, the “ε × F” value ([3]; solvent MeOH) was 12000 and the “Abs. λmax” value ([3]; solvent OcOH) was 587 nm. The “Emission λmax” value ([3]; solvent OcOH) was 617 nm, the “Φ (quantum yield of fluorescence)” value ([3]; solvent OcOH) was 0.98 and the “ε (molar extinction coefficient)” value ([3]; solvent OcOH) was “(125000)”. The “ε × F” value ([3]; solvent OcOH) was 123000, the “Absolute rate constant” value ([1]; BuOH) was 0.65 s^−1 and the “Absolute rate constant” value ([1]; MeOH) was 0.28 s^−1.

With CC1(C)\C(=C/C=C/C=C2/C(=O)c3ccccc3S2(=O)=O)N(CCCS(=O)(=O)[O-])c2ccc(NC(=O)CSCCO)cc21.[Na+] [dye 4g, Sodium 3-{(2E)-5-({[(2-Hydroxyethyl)thio]acetyl}amino)-2-[(2E,4Z)-4-(1,1-dioxido-3-oxo-1-benzothien-2(3H)-ylidene)but-2-enylidene]-3,3-dimethyl-2,3-dihydro-2,3-dihydro-1H-indol-1-yl}propane-1-sulfonate] the “quantum yield after reaction with β-mercaptoethanol relative to underivatized fluorophore” value [3] was “half that of the unaltered fluorophore”, the “Emission λmax” value ([3]; reactive forms, solvent BuOH) was 628 nm and the “absorption λmax” value ([3]; reactive forms, solvent BuOH) was 609 nm. The “Φ (quantum yield of fluorescence)” value ([3]; reactive forms, solvent BuOH) was 0.12, the “ε (molar extinction coefficient)” value ([3]; reactive forms, solvent BuOH) was “(142000)” and the “ε × Φ” value ([3]; reactive forms, solvent BuOH) was 17000. The “Emission λmax” value ([3]; reactive forms, solvent H2O) was 620 nm, the “absorption λmax” value ([3]; reactive forms, solvent H2O) was 600 nm and the “Φ (quantum yield of fluorescence)” value ([3]; reactive forms, solvent H2O) was 0.02. For the same molecule, the “ε (molar extinction coefficient)” value ([3]; reactive forms, solvent H2O) was “(140000)”, the “ε × Φ” value ([3]; reactive forms, solvent H2O) was 3000 and the “Emission λmax” value ([3]; reactive forms, solvent MeOH) was 621 nm. For the same molecule, the “absorption λmax” value ([3]; reactive forms, solvent MeOH) was 601 nm, the “Φ (quantum yield of fluorescence)” value ([3]; reactive forms, solvent MeOH) was 0.04 and the “ε (molar extinction coefficient)” value ([3]; reactive forms, solvent MeOH) was “(140000)”. For the same molecule, the “ε × Φ” value ([3]; reactive forms, solvent MeOH) was 6000.

For COC(=O)Nc1nc2ccc(C(=O)c3cccs3)cc2[nH]1 [nocodazole], the “effect on peripheral Cdc42 activation” value (Cdc42 activation) was “markedly affected peripheral Cdc42 activation”.

In the case of “Sodium 3-[(2E)-6-[({2-[(2,5-Dioxopyrrolidin-1-yl)oxy]-2-oxoethoxy}-acetyl)methylaminol]-2-[(2E,4Z)-4-(1,1-dioxido-3-oxo-1-benzothien-2(3H)-ylidene)but-2-enylidene]-1,3-benzothiazol-3(2H)-yl]propane-1-sulfonate [dye 2f]”, the “Emission λmax” value ([3]; reactive forms, solvent BuOH) is reported as 626 nm, the “absorption λmax” value ([3]; reactive forms, solvent BuOH) is reported as 608 nm and the “Φ (quantum yield of fluorescence)” value ([3]; reactive forms, solvent BuOH) is reported as 0.12. The “ε (molar extinction coefficient)” value ([3]; reactive forms, solvent BuOH) was “(134000)”, the “Emission λmax” value ([3]; reactive forms, solvent H2O) was 618 nm and the “Emission λmax” value ([3]; reactive forms, solvent MeOH) was 621 nm. For the same molecule, the “absorption λmax” value ([3]; reactive forms, solvent MeOH) was 603 nm, the “Φ (quantum yield of fluorescence)” value ([3]; reactive forms, solvent MeOH) was 0.06 and the “ε (molar extinction coefficient)” value ([3]; reactive forms, solvent MeOH) was “(142000)”.

With “Sodium 3-{(2Z)-5-2-[(2E,4Z)-4-(1,1-Dioxido-3-oxo-1-benzothien-2(3H)-ylidene)but-2-enylidene]-3,3-dimethyl-2,3-dihydro-1H-indol-1-yl}propane-1-sulfonate [dye 4b]” the “concentration at which dye did not aggregate” value ([2]; in water, absorbance spectrum) was “greater than 250 μM”.

For “labeled Erk2 protein: MAP kinase Erk2 with I-TBA-3CNPh dye attached to cysteine 214”, the “phosphorylation activity of labeled Erk2” value (Erk2; Western blots, substrate Elk) was “retains phosphorylation activity”.

B1: labeled WASP fragment: WASP fragment (residues 201-320, F271C) derivatized with S—SO dye 2e (conjugate)
chain: DIQNPDITSSRYRGLPAPGPSPADKKRSGKKKISKADIGAPSGFKHVSHVGWDPQNGFDVNNLDPDLRSLCSRAGISEAQLTDAETSKLIYDFIEDQGGLEAVRQEMRRQEPLPPPPPPS
modifications: left off: small tags and cut ends
notes: WASP fragment (residues 201-320, F271C) derivatized with S—SO dye 2e
In the case of B1, the “increase in fluorescence intensity” value (Cdc42; incubated with activated Cdc42) is reported as 300%.
